One test concerns the target T1, HSP90α protein (Homo sapiens, UniProt P07900).
T1 construct: purchased BPS Bioscience #50298
Kind of test: HSP90α-binding FP (BODIPY) assay. As to conditions: FP competition with BODIPY-labeled RNK04010. The protocol:
Binding of test compounds to HSP90α protein was measured by fluorescent polarization (FP) using the HSP90α (N-terminal) Assay Kit (BPS Bioscience, #50298), following the manufacturer's instructions, except as noted. Fluorescently labeled HSP90-binding compounds, either the provided FITC-geldanamycin (5 nM final concentration) or RNK04010, a triazolone-based HSP90 binding small molecule labeled with BODIPY through a piperazine-phenyl linker (5 nM final concentration) were employed. A 2.5-fold serial dilution of each test compound ranging from 20 μM to 5.2 nM was assayed for binding to HSP90α. After the final step of adding HSP90α protein to each assay well, plates were mixed by brief shaking, incubated at 25° C. for 120 min for FITC-geldanamycin or 300 min for RNK04010, and fluorescence was measured using a PerkinElmer EnVision Plate Reader.

Test [1] concerns MV-4-11 human acute myeloid leukemia. The experiment in a line: MV-4-11 CCK-8 proliferation assay. It is filed as cell-based. To be noted: Homo sapiens, MV4-11; MV-4-11 cells, 72 hr. In short, it runs like this: (§1)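 Cells grown per ATCC recommendations were treated with 3-fold serial compound dilutions from 20 μM to 1.02 nM. CCK-8 absorbance was converted to % inhibition against DMSO-treated cells, with cell-free medium containing DMSO as the blank.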
(Formazan colour is commonly taken as a measure of viable cells.)

The test system of test [2] is U-87 MG human glioblastoma. Kind of test: U87 MG CCK-8 proliferation assay. Type of test: cell-based. As to conditions: Homo sapiens, U-87 MG, 72 h, U-87 MG cells, read-out: U87MG CCK-8. In short, it runs like this: as §1

The structures appear in SMILES notation.

This note sets out measurements from US20240124460A1, “METHODS AND COMPOSITIONS FOR TARGETED PROTEIN DEGRADATION” (Ranok Therapeutics (Hangzhou) Co. Ltd., priority 2020, published 2024).

The term IC50 denotes the midpoint of a concentration-inhibition curve. Read a high IC50 as a need for much substance.

As for `CCOc1cc(N2CCC(C(=O)NCCOCCOCCOCCOc3ccc(Nc4cc(-n5nc(C(F)(F)F)c6c5CC(C)(C)CC6=O)ccc4C(N)=O)cc3)CC2)ccc1Nc1ncc2c(n1)N(S(C)(=O)=O)c1ccccc1C(=O)N2C` [Compound 140, N-(2-(2-(2-(2-(4-((2-carbamoyl-5-(6,6-dimethyl-4-oxo-3-(trifluoromethyl)-4,5,6,7-tetrahydro-1H-indazol-1-yl)phenyl)amino)phenoxy)ethoxy)ethoxy)ethoxy)ethyl)-1-(3-ethoxy-4-((5-methyl-11-(methylsulfonyl)-6-oxo-6,11-dihydro-5H-benzo[e]pyrimido[5,4-b][1,4]diazepin-2-yl)amino)phenyl)piperidine-4-carboxamide], on HSP90α protein, the IC50 was more than 1000 nM. In test [1], this compound showed an EC50 of 100 to 1000 nM.
The matching figures for `CCOc1cc(N2CCC(C(=O)N3CCC(CN4CCC(COc5ccc(Nc6cc(-n7nc(C(F)(F)F)c8c7CC(C)(C)CC8=O)ccc6C(N)=O)cc5)CC4)CC3)CC2)ccc1Nc1ncc2c(n1)N(S(C)(=O)=O)c1ccccc1C(=O)N2C` [Compound 137, 4-(6,6-dimethyl-4-oxo-3-(trifluoromethyl)-4,5,6,7-tetrahydro-1H-indazol-1-yl)-2-((4-((1-((1-(1-(3-ethoxy-4-((5-methyl-11-(methylsulfonyl)-6-oxo-6,11-dihydro-5H-benzo[e]pyrimido[5,4-b][1,4]diazepin-2-yl)amino)phenyl)piperidine-4-carbonyl)piperidin-4-yl)methyl)piperidin-4yl)methoxy)phenyl)amino)benzamide]: more than 1000 nM and 100 to 1000 nM.
The matching figures for `CCOc1cc(N2CCC(C(=O)NCCOCCOCCOc3ccc(Nc4cc(-n5nc(C(F)(F)F)c6c5CC(C)(C)CC6=O)ccc4C(N)=O)cc3)CC2)ccc1Nc1ncc2c(n1)N(S(C)(=O)=O)c1ccccc1C(=O)N2C` [Compound 139, N-(2-(2-(2-(4-((2-carbamoyl-5-(6,6-dimethyl-4-oxo-3-(trifluoromethyl)-4,5,6,7-tetrahydro-1H-indazol-1-yl)phenyl)amino)phenoxy)ethoxy)ethoxy)ethyl)-1-(3-ethoxy-4-((5-methyl-11-(methylsulfonyl)-6-oxo-6,11-dihydro-5H-benzo[e]pyrimido[5,4-b][1,4]diazepin-2-yl)amino)phenyl)piperidine-4-carboxamide]: more than 1000 nM and 100 to 1000 nM.
In the case of `CCOc1cc(N2CCC(C(=O)N3CCC(COc4ccc(-c5ccc(NC(=O)c6ccc(OC)c(-c7cccc(OC)c7)c6)cc5)cc4)CC3)CC2)ccc1Nc1ncc2c(n1)N(S(C)(=O)=O)c1ccccc1C(=O)N2C` [Compound 146, N-(4′-((1-(1-(3-ethoxy-4-((5-methyl-11-(methylsulfonyl)-6-oxo-6,11-dihydro-5H-benzo[e]pyrimido[5,4-b][1,4]diazepin-2-yl)amino)phenyl)piperidine-4-carbonyl)piperidin-4-yl)methoxy)-[1,1′-biphenyl]-4-yl)-3′,6-dimethoxy-[1,1′-biphenyl]-3-carboxamide], the EC50 in test [2] and in test [1] was more than 1000 nM each time.
As for `CCOc1cc(N2CCC(C(=O)N3CCN(Cc4ccc(-n5c(C(=O)NCCN6CCN(S(C)(=O)=O)CC6)nnc5-c5cc(C(C)C)c(O)cc5O)cc4)CC3)CC2)ccc1Nc1ncc2c(n1)N(S(C)(=O)=O)c1ccccc1C(=O)N2C` [Compound 174, 5-(2,4-dihydroxy-5-isopropylphenyl)-4-(4-((4-(1-(3-ethoxy-4-((5-methyl-11-(methylsulfonyl)-6-oxo-6,11-dihydro-5H-benzo[e]pyrimido[5,4-b][1,4]diazepin-2-yl)amino)phenyl)piperidine-4-carbonyl)piperazin-1-yl)methyl)phenyl)-N-(2-(4-(methylsulfonyl)piperazin-1-yl)ethyl)-4H-1,2,4-triazole-3-carboxamide], the EC50 in test [2] and in test [1] was less than 100 nM in each case.
As for `CCOc1cc(N2CCC(C(=O)N3CCN(Cc4ccc(-n5c(O)nnc5-c5cc(C(C)C)c(O)cc5O)cc4)CC3)CC2)ccc1Nc1ncc2c(n1)N(S(C)(=O)=O)c1ccccc1C(=O)N2C` [Compound 159, 2-((4-(4-(4-(4-(3-(2,4-dihydroxy-5-isopropylphenyl)-5-hydroxy-4H-1,2,4-triazol-4-yl)benzyl)piperazine-1-carbonyl)piperidin-1-yl)-2-ethoxyphenyl)amino)-5-methyl-11-(methylsulfonyl)-5,11-dihydro-6H-benzo[e]pyrimido[5,4-b][1,4]diazepin-6-one], the EC50 in test [2] and in test [1] was less than 100 nM each time.
On to `CCOc1cc(N2CCC(C(=O)NCc3ccc(CN(C)Cc4ccc(-n5c(O)nnc5-c5cc(C(C)C)c(O)cc5O)cc4)cc3)CC2)ccc1Nc1ncc2c(n1)N(S(C)(=O)=O)c1ccccc1C(=O)N2C` [Compound 170, N-(4-(((4-(3-(2,4-dihydroxy-5-isopropylphenyl)-5-hydroxy-4H-1,2,4-triazol-4-yl)benzyl)(methyl)amino)methyl)benzyl)-1-(3-ethoxy-4-((5-methyl-11-(methylsulfonyl)-6-oxo-6,11-dihydro-5H-benzo[e]pyrimido[5,4-b][1,4]diazepin-2-yl)amino)phenyl)piperidine-4-carboxamide], for which the EC50 in test [2] and in test [1] was less than 100 nM in each case.
As to `CCNC(=O)c1nnc(-c2cc(C(C)C)c(O)cc2O)n1-c1ccc(CN2CCN(c3ccc(Nc4ncc5c(n4)N(C4CCCC4)c4ccccc4C(=O)N5C)c(OCC)c3)CC2)cc1` [Compound 190, 4-(4-((4-(4-((11-cyclopentyl-5-methyl-6-oxo-6,11-dihydro-5H-benzo[e]pyrimido[5,4-b][1,4]diazepin-2-yl)amino)-3-ethoxyphenyl)piperazin-1-yl)methyl)phenyl)-5-(2,4-dihydroxy-5-isopropylphenyl)-N-ethyl-4H-1,2,4-triazole-3-carboxamide], the EC50 in test [2] and in test [1] was 100 to 1000 nM throughout.
Regarding `CCOc1cc(N2CCC(C(=O)N3CCN(Cc4ccc(-n5c(C(=O)NCCN(CC)CC)nnc5-c5cc(C(C)C)c(O)cc5O)cc4)CC3)CC2)ccc1Nc1ncc2c(n1)N(C)c1ccccc1C(=O)N2C` [Compound 163, N-(2-(diethylamino)ethyl)-5-(2,4-dihydroxy-5-isopropylphenyl)-4-(4-((4-(1-(4-((5,11-dimethyl-6-oxo-6,11-dihydro-5H-benzo[e]pyrimido[5,4-b][1,4]diazepin-2-yl)amino)-3-ethoxyphenyl)piperidine-4-carbonyl)piperazin-1-yl)methyl)phenyl)-4H-1,2,4-triazole-3-carboxamide], the EC50 in test [2] and in test [1] was less than 100 nM each time.
On to `CCOc1cc(N2CCC(CN3CCC(CN4CCN(Cc5ccc(-n6c(C(=O)NC(C)C(F)(F)F)nnc6-c6cc(C(C)C)c(O)cc6O)cc5)CC4)CC3)CC2)ccc1Nc1ncc2c(n1)N(S(C)(=O)=O)c1ccccc1C(=O)N2C` (stereo not drawn) [Compound 181, 5-(2,4-dihydroxy-5-isopropylphenyl)-4-(4-((4-((1-((1-(3-ethoxy-4-((5-methyl-11-(methylsulfonyl)-6-oxo-6,11-dihydro-5H-benzo[e]pyrimido[5,4-b][1,4]diazepin-2-yl)amino)phenyl)piperidin-4-yl)methyl)piperidin-4-yl)methyl)piperazin-1-yl)methyl)phenyl)-N-(1,1,1-trifluoropropan-2-yl)-4H-1,2,4-triazole-3-carboxamide], for which the EC50 in test [2] was 100 to 1000 nM; in test [1], less than 100 nM.
The matching figures for `CCOc1cc(N2CCC(C(=O)N3CCC(CN4CCN(Cc5ccc(-n6c(C(=O)NC(C)C(F)(F)F)nnc6-c6cc(CC)c(O)cc6OC(=O)C(C)C)cc5)CC4)CC3)CC2)ccc1Nc1ncc2c(n1)N(S(C)(=O)=O)c1ccccc1C(=O)N2C` (stereo not drawn) [Compound 162, 2-(4-(4-((4-((1-(1-(3-ethoxy-4-((5-methyl-11-(methylsulfonyl)-6-oxo-6,11-dihydro-5H-benzo[e]pyrimido[5,4-b][1,4]diazepin-2-yl)amino)phenyl)piperidine-4-carbonyl)piperidin-4-yl)methyl)piperazin-1-yl)methyl)phenyl)-5-((1,1,1-trifluoropropan-2-yl)carbamoyl)-4H-1,2,4-triazol-3-yl)-4-ethyl-5-hydroxyphenyl isobutyrate]: 100 to 1000 nM and 100 to 1000 nM.
On the same counts, the results for `CCOc1cc(N2CCC(C(=O)NCCOCCOCCOc3ccc(Nc4cc(-n5nc(C(F)(F)F)c6c5CC(C)(C)CC6=O)ccc4C(N)=O)cc3)CC2)ccc1Nc1ncc2c(n1)N(C)c1ccccc1C(=O)N2C` [Compound 131, N-(2-(2-(2-(4-((2-carbamoyl-5-(6,6-dimethyl-4-oxo-3-(trifluoromethyl)-4,5,6,7-tetrahydro-1H-indazol-1-yl)phenyl)amino)phenoxy)ethoxy)ethoxy)ethyl)-1-(4-((5,11-dimethyl-6-oxo-6,11-dihydro-5H-benzo[e]pyrimido[5,4-b][1,4]diazepin-2-yl)amino)-3-ethoxyphenyl)piperidine-4-carboxamide] are more than 1000 nM and 100 to 1000 nM.
